Experimental data reported in US8741954B2, “Synergistic enhancement of calcium propionate” (ViraTox, L.L.C., priority 2007, dated 2014).

Legend:
[1] = tested on: Aspergillus niger (ATCC #6275), Chaetomium globosum (ATCC #6205) and Aspergillus terreus (ATCC #10690) suspensions; assay: TAPPI T 487 pm-99 fungal resistance of treated paper; assay type: cell-based; details: treated Whatman paper coupons, 28° C., 21 day test, observed weekly
Description: This method is used to determine the resistance of paper and paperboard to fungal growth in ideally suited controlled conditions of light, temperature, moisture, and food supply. Treated 50 mm test coupons of paper are placed on a surface of test agar, flooded with a test inoculum of fungal spores, and incubated to determine fungal resistance. The rating that is provided follows an established protocol to determine the degree of mold growth on a rating scale reported as 1) not fungal resistant; 2) moderately fungal resistant; and 3) resistant.
Challenges of treated porous surfaces, represented by selected samples of untreated paper product specified as Whatman filter paper #4 and paper product specified as Whatman filter paper #4 treated with a solution of fungicides, are exposed to designated fungal suspensions known to cause failure under certain use conditions. The test samples are prepared according to T 487 pm-99 by aseptically removing pre-sterilized 50 mm paper coupons, previously equilibrated to room temperature, and then placed in a controlled chamber at 28+/−1° C. (82.40 F) and 95%-98% RH. The chamber is fitted with a tray filled with a salt solution to maintain humidity control. The test ensues continuously for 21 days and samples are observed weekly. The panels are rated each week according to the appearance of fungal growth.
This series of tests according to the TAPPI T 487 pm-99 protocol were conducted with multiple specimens of treated and untreated (Control) paper substrates with the specified fungal species of Aspergillus niger (ATCC #6275), Chaetomium globosum (ATCC #6205), and Aspergillus terreus (ATCC #10690) suspensions. The suspensions of inoculum were harvested from 14 day potato dextrose agar cultures into sterile water, combining the culture suspensions from each fungal genus and adjusting to concentrations of 10^6/ml. Triplicate substrate samples were then prepared from sheets of cellulose fiber papers (Whatman) cut into 50 mm squares and steam sterilized. The sterilized paper coupons were immersed in a solution of each challenge solution, allowed to soak for ten minutes, removed and placed into aluminum drying trays in a drying oven for 24 hours at 67° C. The test papers were placed onto the surface of prepared agar plates containing mineral-salt agar as outlined in T 487 pm-99. Two plies of paper were treated as a single test specimen and were directly pipetted with 1 ml of fungal suspension on the surface of each test coupon. The plates were then inverted and placed into humid incubation chambers and incubated at 28° C.+/−1 C for 21 days. Observations for growth were conducted on successive weekly schedules as well as verification of test inocula to distinguish contaminants or naturally occurring molds from actual challenge organisms. Growth was defined as sporulating, hyphael appearances directly from the paper substrate. The following comparative table depicts the various solutions and resistance results: […]

[2] = tested on: suspension of fungal spores of Chaetomium globosum ATCC #6205, Aspergillus niger ATCC #6275 and Aspergillus terreus ATCC #10690; assay: Disk diffusion method of determining susceptibility of fungi (developed from the Kirby-Bauer method); assay type: cell-based
Description: A disk diffusion method of determining susceptibility of fungi to Maquat 2525M 50% was developed from the Kirby-Bauer Bactericidal Disk Diffusion Method. […] This method was utilized as a screening method to achieve a rapid means of fungal inhibition after 5 days of incubation.
The inoculum was composed of a suspension of fungal spores harvested from one week cultures of ATCC #6205-Chaetomium globosum; ATCC #6275-Aspergillus niger; and, ATCC #10690-Aspergillus terreus. Once the plates were seeded with inoculum, DIFCO Concentration Disks (¼″) were impregnated with a 0.5% solution of Maquat 2525M 50%, allowed to air dry in sterile petri dishes and placed at equidistant locations on each plate. At the end of the five day incubation at 30° C., 5 plates containing four disks each were examined visually and microscopically.

Structure (SMILES) | Days in Incubation [1] [days] | Resistance Grade [1] | Resistance grade of specimens ([2]; DIFCO disks impregnated with solution (Maquat 0.5%, calcium propionate 2.5%, sodium carboxymethylcellulose 0.5%, cetylpyridinium chloride 0.125%), potato dextrose agar, 5 days at 30° C.) | Growth on disks, visual and microscopic examination ([2]; after the 5 day incubation period)
CCC(=O)O [1.5% propionic acid, propionic acid] | 9 | Not resistant |  | 
c1ccc2[nH]c(-c3cscn3)nc2c1 [Thiabendazole (TBZ) 1.0% Merck AgVet, Thiabendazole] | 17 | Moderately resistant |  | 
CCC(=O)[O-].CCC(=O)[O-].[Ca+2] [calcium propionate] | 8 | Not resistant | No Resistance | occluded with profuse growth
CCCCCCCCCCCCCCCC[n+]1ccccc1 [1.25% cetylpyridinium chloride, cetylpyridinium chloride] | 15 |  |  | 
